Laboratory results reported in patent US10660977B2, “Method for treating biological tissue and biological tissue” (WASEDA UNIVERSITY, priority 2012, dated 2020).

Assay: Concentration of trehalose dissolved in PBS
Type: physicochemical
Conditions: PBS at 37° C.
Procedure: Also, the maximum concentration of trehalose was set to 50% because the concentration of trehalose dissolved in PBS at 37° C. was about 50%.

concentration of trehalose dissolved in PBS: about 50%
Structure (SMILES): OC[C@H]1O[C@H](O[C@H]2O[C@H](CO)[C@@H](O)[C@H](O)[C@H]2O)[C@H](O)[C@@H](O)[C@@H]1O [trehalose]
